In patent US20200093932A1, “TREATMENT OF CANCER” (BlueLink Pharmaceuticals, Inc., priority 2016, published 2020):

Experiments:
Type in all cases: in vivo
[1] = tested on: B16.F10 mouse melanoma tumor model; test: Example 1: CRLX101 with NLG-919 analog or INCB-024360 analog, tumor growth inhibition and delay
Experimental: On Day 1, B16.F10 cells, passage 3, were suspended in DMEM (Dulbecco's Modified Eagle Medium) and implanted subcutaneously (SC) in mice. […] The dose was 100 mg/kg administered PO twice every day with a dose volume of 10 mL/kg for 14 days, from Day 7 to Day 20 post tumor implantation as a monotherapy and in combination with CRLX101
(§1) Tumor volumes were measured 3 times every week using the equation (width*width*length)/2, in mm^3. Tumor growth inhibition (TGI) was determined by comparing the mean tumor volume of the treated group with the mean tumor volume of the control group, as the decrease in tumor volume of the treated group as a percent of total tumor volume of the control group. The equation to calculate TGI is (1-(treated volume/control volume))*100.
(§2) Tumor growth delay (TGD) was determined as the number of days between when the control group reached the tumor volume endpoint and when the treated group reached the tumor volume endpoint.

[2] = tested on: B16.F10 mouse melanoma tumor model; test: Example 4: CRLX101 + NLG-919 analog versus Irinotecan + NLG-919 analog, tumor growth inhibition and delay; conditions: for Inhibit tumor growth?: B16.F10 SC tumors in mice, CRLX101 6 mg/kg IV q7dx2 (Day 6, 13), NLG-919 analog 12.5 mg/kg IP bid Day 6-19, Irinotecan 100 mg/kg q7dx2 (Day 6, 13); for TGI vs. Control (%): same dosing, relative to vehicle control
Experimental: On Day 1, B16.F10 cells, passage 3, were suspended in DMEM (Dulbecco's Modified Eagle Medium) and implanted subcutaneously (SC) in mice. […] The dose was 100 mg/kg q7dx2, i.e., administered at a dose volume of 10 mL/kg on Day 6 and Day 13 post tumor implantation as a monotherapy and in combination.
as §1, §2

[3] = tested on: B16.F10 mouse melanoma tumor model; test: Example 5: CRLX101 + NLG-919 analog versus anti-PD-1 antibody + NLG-919 analog, tumor growth inhibition and delay
Experimental: On Day 1, B16.F10 cells, passage 3, were suspended in DMEM (Dulbecco's Modified Eagle Medium) and implanted subcutaneously (SC) in mice.
as §1, with “(1−(treated” for “(1-(treated”
as §2

[4] = tested on: B16.F10 mouse melanoma tumor model; test: Example 2: CRLX101 with INCB-024360, tumor growth inhibition and delay
Experimental: On Day 1, B16.F10 cells, passage 5, were suspended in DMEM (Dulbecco's Modified Eagle Medium) and implanted subcutaneously (SC) in mice. When the mean tumor volume reached 60 mm^3, the mice were randomized into study groups and given one of the following treatments: • a control vehicle (20% DMSO/7.5% propylene glycol/5% Tween 80/67.5% PBS) administered IP bid for 13 days, from Day 5 to Day 17, with a dose volume of 10 mL/kg • CRLX101 administered IV at 6 mg/kg q7dx2, i.e. on Day 5 and Day 12 at a dose volume of 10 mL/kg as monotherapy and in combination • INCB-024360 (lot #01, SelleckChem, Houston, Tex.) 10 mg/mL in 20% DMSO/[…]/5% Tween 80/67.5% PBS. The dose was 100 mg/kg administered PO twice every day with a dose volume of 10 mL/kg for 13 days, from Day 5 to […] post tumor implantation as a monotherapy and in combination with CRLX101
as §1, §2

[5] = tested on: B16.F10 mouse melanoma tumor model; test: Example 3: CRLX101 with Indoximod, tumor growth inhibition and delay
Experimental: On Day 1, B16.F10 cells, passage 2, were suspended in DMEM (Dulbecco's Modified Eagle Medium) and implanted subcutaneously (SC) in mice. When the mean tumor volume reached 69 mm^3, the mice were randomized into study groups and given one of the following treatments: • a control vehicle (drinking water with the sweetening agent Equal™ added (2 g/L)) was included in the study from Day 7 to Day 19 post tumor implantation. • CRLX101 administered IV at 6 mg/kg q7dx2, i.e. on Day 7 and Day 14 at a dose volume of 10 mL/kg as monotherapy and in combination. • Indoximod (lot # MKBQ8091V, Sigma-Aldrich) was administered in the drinking water at a concentration of 2 mg/mL from Day 7 to Day 19 post tumor implantation as a monotherapy and in combination with CRLX101. The water had Equal™ added (2 g/L).
Tumor volumes were measured 3 times every week using the equation (width*width*length)/2, in mm^3. The endpoint for tumor volume was 2000 mm^3. Tumor growth inhibition (TGI) was determined by comparing the mean tumor volume of the treated group with the mean tumor volume of the control group, as the decrease in tumor volume of the treated group as a percent of total tumor volume of the control group. […]
as §2

[6] = same dosing, vs vehicle when the control group reached the tumor volume endpoint

SMILES: OC(CC1c2ccccc2-c2cncn21)C1CCCCC1 (stereo not shown) [NLG-919 analog]
- Inhibit tumor growth? ([1]; B16.F10 SC tumors in mice, CRLX101 6 mg/kg IV q7dx2 (Day 7, 14), NLG-919 analog 12.5 mg/kg IP bid Day 7-20, INCB-024360 analog 100 mg/kg PO bid Day 7-20): No
- TGI vs. Control (%) ([1]; same dosing, mean tumor volume vs vehicle when the control group reached the tumor volume endpoint): 23%
- Inhibit tumor growth? [2]: did not inhibit tumor growth and No
- TGI vs. Control (%) [2]: 5%
- Inhibit tumor growth? ([3]; B16.F10 SC tumors in mice, CRLX101 6 mg/kg IV q7dx2 (Day 6, 13), NLG-919 analog 12.5 mg/kg IP bid Day 6-19, anti-mouse PD-1 antibody 200 μg per mouse IP Day 6, 9, 13, 16): did not inhibit tumor growth and No
- TGI vs. Control (%) [3, 6]: 15%

SMILES: CCc1c2c(nc3ccc(OC(=O)N4CCC(N5CCCCC5)CC4)cc13)-c1cc3c(c(=O)n1C2)COC(=O)[C@]3(O)CC [Irinotecan]
- Inhibit tumor growth? [2]: No
- TGI vs. Control (%) [2]: −12%

SMILES: NS(=O)(=O)NCCNc1nonc1/C(=N/O)Nc1ccc(F)c(Br)c1 [INCB-024360]
- Inhibit tumor growth? ([4]; B16.F10 SC tumors in mice, CRLX101 6 mg/kg IV q7dx2 (Day 5, 12), INCB-024360 100 mg/kg PO bid Day 5-18): did not inhibit tumor growth and No
- TGD (Day) ([4]; same dosing, days between control and treated group reaching the tumor volume endpoint): no TGD
- TGI vs. Control (%) [4, 6]: 20%

SMILES: Cn1cc(C[C@@H](N)C(=O)O)c2ccccc21 [Indoximod]
- Inhibit tumor growth? ([5]; B16.F10 SC tumors in mice, CRLX101 6 mg/kg IV q7dx2 (Day 7, 14), Indoximod 2 mg/mL in drinking water Day 7-19): did not inhibit tumor growth and No
- TGI vs. Control (%) ([5]; same dosing, vs vehicle when the control group reached the tumor volume endpoint (2000 mm^3)): −49%
